Laboratory results published in patent US20030225527A1, “Crystals and structures of MST3” (priority 2002, published 2003).
Structures can show the parent of a compound that is named as a salt.

Molecular target: T1, MST3 kinase domain (Homo sapiens, UniProt Q9Y6E0)
T1 construct: 5 μg/ml MST3 kinase domain; Met-Ser-Leu (vector-encoded residues) (N); Glu-Gly-His6 (C); made in house; host or cells: E. coli
Experiment: MST3 kinase assay (PK/LDH-coupled, loss of NADH at 340 nm)
Assay type: biochemical
Conditions: purified MST3 kinase domain 5 μg/ml, 10 μM ATP, 400 μM MST3 peptide, 1 mM MnCl2

T1 sequence (Q9Y6E0 36-286 limits assumed): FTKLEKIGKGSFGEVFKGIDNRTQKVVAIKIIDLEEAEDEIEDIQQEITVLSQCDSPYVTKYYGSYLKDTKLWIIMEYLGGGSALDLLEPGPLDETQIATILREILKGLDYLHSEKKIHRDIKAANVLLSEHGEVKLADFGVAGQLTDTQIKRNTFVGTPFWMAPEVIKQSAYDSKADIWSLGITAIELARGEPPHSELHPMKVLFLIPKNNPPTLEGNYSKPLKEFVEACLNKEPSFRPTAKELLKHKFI

| IC50 [µM] | Structure (SMILES) |
| --- | --- |
| 30 | O=S(=O)(NCCNCC=Cc1ccc(Br)cc1)c1cccc2cnccc12 [H89, N-[2-(p-Bromocinnamylamino)ethyl]-5-isoquinolinesulfonamide.2HCl] |
| 18 | O=S(=O)(c1cccc2c(Cl)cccc12)N1CCCNCC1 [ML-9, 1-(5-Chloronaphthalene-1-sulfonyl)-1H-hexahydro-1,4-diazepine.HCl] |
